Data as given in PubChem BioAssay (NCI).
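1) Cells in 96-well plates. 2) Compound, 48 h, 5 concentrations. 3) Linear interpolation between surrounding doses. 4) Unreached endpoint = highest concentration. The concentration for 50% growth inhibition is given as GI50. Definition used: TGI = concentration required for complete inhibition of growth.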

Experiments:
Experiment in all cases: growth of human tumour cells (NCI), 48 h
MCF7 breast = system: MCF7 breast
LOX IMVI melanoma = system: LOX IMVI melanoma
PC-3 prostate = system: PC-3 prostate
KM12 colon = system: KM12 colon
IGROV1 ovarian = system: IGROV1 ovarian
HS 578T breast = system: HS 578T breast
NCI-H23 lung = system: NCI-H23 lung
NCI-H522 lung = system: NCI-H522 lung
MDA-MB-435 = system: MDA-MB-435
SNB-19 CNS = system: SNB-19 CNS
ACHN renal = system: ACHN renal
HCT-116 colon = system: HCT-116 colon
HL-60(TB) leukemia = system: HL-60(TB) leukemia
NCI/ADR-RES ovarian = system: NCI/ADR-RES ovarian
RPMI-8226 leukemia = system: RPMI-8226 leukemia
MDA-MB-231 breast = system: MDA-MB-231 breast
COLO 205 colon = system: COLO 205 colon
SR leukemia = system: SR leukemia
HCC-2998 colon = system: HCC-2998 colon
SK-MEL-28 melanoma = system: SK-MEL-28 melanoma
CCRF-CEM leukemia = system: CCRF-CEM leukemia
A498 renal = system: A498 renal
NCI-H226 lung = system: NCI-H226 lung
SF-295 CNS = system: SF-295 CNS
MOLT-4 leukemia = system: MOLT-4 leukemia
UACC-62 melanoma = system: UACC-62 melanoma
DU-145 prostate = system: DU-145 prostate
786-0 renal = system: 786-0 renal
UACC-257 melanoma = system: UACC-257 melanoma
A549 NSCLC = system: A549 NSCLC
SNB-75 CNS = system: SNB-75 CNS
HCT-15 colon = system: HCT-15 colon
T-47D breast = system: T-47D breast
OVCAR-8 ovarian = system: OVCAR-8 ovarian
OVCAR-3 ovarian = system: OVCAR-3 ovarian
MALME-3M melanoma = system: MALME-3M melanoma
U251 CNS = system: U251 CNS
EKVX NSCLC = system: EKVX NSCLC
HT29 colon = system: HT29 colon
SF-268 CNS = system: SF-268 CNS
K-562 leukemia = system: K-562 leukemia
SK-MEL-5 melanoma = system: SK-MEL-5 melanoma
NCI-H460 lung = system: NCI-H460 lung
UO-31 renal = system: UO-31 renal
HOP-62 NSCLC = system: HOP-62 NSCLC
OVCAR-4 ovarian = system: OVCAR-4 ovarian
HOP-92 NSCLC = system: HOP-92 NSCLC
SK-MEL-2 melanoma = system: SK-MEL-2 melanoma
OVCAR-5 ovarian = system: OVCAR-5 ovarian
SW-620 colon = system: SW-620 colon
BT-549 breast = system: BT-549 breast
M14 melanoma = system: M14 melanoma
CAKI-1 renal = system: CAKI-1 renal
MDA-MB-468 breast = system: MDA-MB-468 breast
RXF 393 renal = system: RXF 393 renal
SK-OV-3 ovarian = system: SK-OV-3 ovarian
TK-10 renal = system: TK-10 renal
SN12C renal = system: SN12C renal
SF-539 CNS = system: SF-539 CNS

O=C1Nc2cc(-c3ccc(NS(=O)(=O)c4ccc(C(F)(F)F)cc4)cc3)ccc2/C1=C/c1ccc[nH]1
GI50 (MCF7 breast): 81.8 nM | TGI (MCF7 breast): 1470 nM | GI50 (LOX IMVI melanoma): 1630 nM | TGI (LOX IMVI melanoma): 2980 nM | GI50 (PC-3 prostate): 1570 nM | TGI (PC-3 prostate): 4830 nM | GI50 (KM12 colon): 1940 nM | TGI (KM12 colon): 7830 nM | GI50 (IGROV1 ovarian): 3310 nM | TGI (IGROV1 ovarian): 15000 nM | GI50 (HS 578T breast): 1960 nM | TGI (HS 578T breast): 10300 nM | GI50 (NCI-H23 lung): 1070 nM | TGI (NCI-H23 lung): 2830 nM | GI50 (NCI-H522 lung): 1440 nM | TGI (NCI-H522 lung): 3320 nM | GI50 (MDA-MB-435): 1860 nM | TGI (MDA-MB-435): 3950 nM | GI50 (SNB-19 CNS): 2530 nM | TGI (SNB-19 CNS): 11300 nM | GI50 (ACHN renal): 2190 nM | TGI (ACHN renal): 5310 nM | GI50 (HCT-116 colon): 1820 nM | TGI (HCT-116 colon): 3460 nM | GI50 (HL-60(TB) leukemia): 2900 nM | TGI (HL-60(TB) leukemia): 10700 nM | GI50 (NCI/ADR-RES ovarian): 2590 nM | TGI (NCI/ADR-RES ovarian): 8600 nM | GI50 (RPMI-8226 leukemia): 1330 nM | TGI (RPMI-8226 leukemia): 4250 nM | GI50 (MDA-MB-231 breast): 2280 nM | TGI (MDA-MB-231 breast): 8290 nM | GI50 (COLO 205 colon): 2420 nM | TGI (COLO 205 colon): 8250 nM | GI50 (SR leukemia): 1970 nM | TGI (SR leukemia): 7000 nM | GI50 (HCC-2998 colon): 1910 nM | TGI (HCC-2998 colon): 4920 nM | GI50 (SK-MEL-28 melanoma): 2260 nM | TGI (SK-MEL-28 melanoma): 5680 nM | GI50 (CCRF-CEM leukemia): 2270 nM | TGI (CCRF-CEM leukemia): 6820 nM | GI50 (A498 renal): 1990 nM | TGI (A498 renal): 7780 nM | GI50 (NCI-H226 lung): 1100 nM | TGI (NCI-H226 lung): 6790 nM | GI50 (SF-295 CNS): 2040 nM | TGI (SF-295 CNS): 4670 nM | GI50 (MOLT-4 leukemia): 2490 nM | TGI (MOLT-4 leukemia): 10800 nM | GI50 (UACC-62 melanoma): 2130 nM | TGI (UACC-62 melanoma): 9730 nM | GI50 (DU-145 prostate): 1870 nM | TGI (DU-145 prostate): 4000 nM | GI50 (786-0 renal): 2550 nM | TGI (786-0 renal): 6540 nM | GI50 (UACC-257 melanoma): 2390 nM | TGI (UACC-257 melanoma): 7330 nM | GI50 (A549 NSCLC): 1310 nM | TGI (A549 NSCLC): 2920 nM | GI50 (SNB-75 CNS): 2290 nM | TGI (SNB-75 CNS): 13300 nM | GI50 (HCT-15 colon): 1420 nM | TGI (HCT-15 colon): 3260 nM | GI50 (T-47D breast): 230 nM | TGI (T-47D breast): 3860 nM | GI50 (OVCAR-8 ovarian): 1910 nM | TGI (OVCAR-8 ovarian): 4070 nM | GI50 (OVCAR-3 ovarian): 1430 nM | TGI (OVCAR-3 ovarian): 2920 nM | GI50 (MALME-3M melanoma): 3050 nM | TGI (MALME-3M melanoma): 13600 nM | GI50 (U251 CNS): 1610 nM | TGI (U251 CNS): 3120 nM | GI50 (EKVX NSCLC): 123 nM | TGI (EKVX NSCLC): 4130 nM | GI50 (HT29 colon): 2210 nM | TGI (HT29 colon): 5140 nM | GI50 (SF-268 CNS): 1720 nM | TGI (SF-268 CNS): 3860 nM | GI50 (K-562 leukemia): 2480 nM | TGI (K-562 leukemia): 11000 nM | GI50 (SK-MEL-5 melanoma): 4130 nM | TGI (SK-MEL-5 melanoma): 15600 nM | GI50 (NCI-H460 lung): 437 nM | TGI (NCI-H460 lung): 1770 nM | GI50 (UO-31 renal): 1510 nM | TGI (UO-31 renal): 10300 nM | GI50 (HOP-62 NSCLC): 1660 nM | TGI (HOP-62 NSCLC): 4700 nM | GI50 (OVCAR-4 ovarian): 1100 nM | TGI (OVCAR-4 ovarian): 7330 nM | GI50 (HOP-92 NSCLC): 1100 nM | TGI (HOP-92 NSCLC): 3790 nM | GI50 (SK-MEL-2 melanoma): 3140 nM | TGI (SK-MEL-2 melanoma): 12200 nM | GI50 (OVCAR-5 ovarian): 1800 nM | TGI (OVCAR-5 ovarian): 7060 nM | GI50 (SW-620 colon): 1870 nM | TGI (SW-620 colon): 3680 nM | GI50 (BT-549 breast): 1960 nM | TGI (BT-549 breast): 5540 nM | GI50 (M14 melanoma): 3110 nM | TGI (M14 melanoma): 13000 nM | GI50 (CAKI-1 renal): 2570 nM | TGI (CAKI-1 renal): 11100 nM | GI50 (MDA-MB-468 breast): 31.1 nM | TGI (MDA-MB-468 breast): 309 nM | GI50 (RXF 393 renal): 1960 nM | TGI (RXF 393 renal): 4370 nM | GI50 (SK-OV-3 ovarian): 2200 nM | TGI (SK-OV-3 ovarian): 11600 nM | GI50 (TK-10 renal): 1270 nM | TGI (TK-10 renal): 6710 nM | GI50 (SN12C renal): 1590 nM | TGI (SN12C renal): 3170 nM | GI50 (SF-539 CNS): 1430 nM | TGI (SF-539 CNS): 3260 nM
